Assays:
[1] = tested on: pigweed (AMARE); experiment: Postemergence greenhouse trial, % visual injury on pigweed; type: in vivo, Amaranthus retroflexus; details: for pest or weed control at 35 g/ha: Amaranthus retroflexus, post-emergence, alone, read-out: % visual injury, Ob; for % visual injury, observed (Ob): AMARE
Procedure: (§1) Seeds of the desired test plant species were planted in Sun Gro MetroMix® 306 planting mixture, which typically has a pH of 6.0 to 6.8 and an organic matter content of about 30 percent, in plastic pots with a surface area of 103.2 square centimeters (cm^2). When required to ensure good germination and healthy plants, a fungicide treatment and/or other chemical or physical treatment was applied. The plants were grown for 7-36 days (d) in a greenhouse with an approximate 14-hour (h) photoperiod which was maintained at about 23° C. during the day and 22° C. during the night. Nutrients and water were added on a regular basis and supplemental lighting was provided with overhead metal halide 1000-Watt lamps as necessary. The plants were employed for testing when they reached the second or third true leaf stage.
(§2) Weighed amounts of technical material were dissolved in a volume of 97:3 volume per volume (v/v) acetone/dimethyl sulfoxide (DMSO) to stock solutions. […] The concentrated stock solutions were diluted with an aqueous mixture of 1.5% v/v of Agri-dex crop oil concentrate to provide the appropriate application rates. Compound requirements are based upon a 12 milliliter (mL) application volume at a rate of 187 liters per hectare (L/ha). Stocks solutions of the safeners were prepared following the same procedure. Spray solutions of the safeners and experimental compound mixtures were prepared by adding the stock solutions to the appropriate amount of dilution solution to form a 12 mL spray solution in two-way combinations. Formulated compounds were applied to the plant material with an overhead Mandel track sprayer equipped with 8002E nozzles calibrated to deliver 187 L/ha over an application area of 0.503 square meters (m^2) at a spray height of 18 inches (43 centimeters (cm)) above average plant canopy. Control plants were sprayed in the same manner with the solvent blank. All herbicide application (component a) rates are in g ae/ha and all safener (component b) rates are in g ai/ha.
(§3) The treated plants and control plants were placed in a greenhouse as described above and watered by sub-irrigation to prevent wash-off of the test compounds. After 20-22 d, the condition of the test plants as compared with that of the control plants was determined visually and scored on a scale of 0 to 100 percent where 0 corresponds to no injury and 100 corresponds to complete kill. The condition of the test plants was compared with that of the control plants as determined visually and scored on a scale of 0 to 100 percent, where 0 corresponds to no injury and 100 corresponds to complete kill. Colby's equation was used to determine the herbicidal effects expected from the mixtures.
(§4) The safener cloquintocet-mexyl was combined with compound 1, compound 2, compound 4, compound 5, and compound 6, and applied to corn/maize (ZEAMX) and spring wheat (TRZAS) and the phytotoxicity of the herbicidal compositions was measured. In addition, the efficacy of the herbicidal composition on velvetleaf (ABUTH, Abutilon theophrasti), pigweed (AMARE, Amaranthus retroflexus), winter rape (BRSNW, Brassica napus), lambsquarters (CHEAL, Chenopodium album), thistle (CIRAR, Cirsium arvense), nutsedge (CYPES, Cyperus esculentus), poinsettia (EPHHL, Euphorbia heterophylla), wild buckwheat (POLCO, Polygonum convolvulus), giant foxtail (SETFA, Setaria faberi), and chickweed (STEME, Stellaria media) was evaluated. […]
(§5) The safener cloquintocet-acid and a number of agriculturally acceptable esters and salts (-mexyl, -dimethylammonium salt and -triethylammonium salt) were combined in varying ratios with compound 1 and applied to spring wheat (TRZAS), winter wheat (TRZAW), and spring barley (HORVS), and the phytotoxicity of the herbicidal compositions was measured. […]

[2] = tested on: winter rape (BRSNW); experiment: Postemergence greenhouse trial, % visual injury on winter rape; type: in vivo, Brassica napus; details: Brassica napus, post-emergence; alone, 35 g/ha; read-out: % visual injury, Ob
Procedure: as §1, §2, §3, §4

[3] = tested on: velvetleaf (ABUTH); experiment: Postemergence greenhouse trial, % visual injury on velvetleaf; type: in vivo, Abutilon theophrasti; details: alone, 35 g/ha
Procedure: as §1, §2, §3
(§6) The safener cloquintocet-mexyl was combined with compound 1, compound 2, compound 4, compound 5, and compound 6, and applied to corn/maize (ZEAMX) and spring wheat (TRZAS) and the phytotoxicity of the herbicidal compositions was measured. In addition, the efficacy of the herbicidal composition on velvetleaf (ABUTH, Abutilon theophrasti), pigweed (AMARE, Amaranthus retroflexus), winter rape (BRSNW, Brassica napus), lambsquarters (CHEAL, Chenopodium album), thistle (CIRAR, Cirsium arvense), nutsedge (CYPES, Cyperus esculentus), poinsettia (EPHHL, Euphorbia heterophylla), wild buckwheat (POLCO, Polygonum convolvulus), giant foxtail (SETFA, Setaria faberi), and chickweed (STEME, Stellaria media) was evaluated.
(§7) The safener cloquintocet-mexyl was combined with compound 1, compound 2, compound 3, compound 7, compound 8, compound 9, compound 10, compound 11, compound 12, compound 13, compound 14, compound 15, compound 16, compound 17, compound 18, compound 19, and compound 20, and applied to spring wheat (TRZAS), winter wheat (TRZAW), and spring barley (HORVS) and the phytotoxicity of the herbicidal compositions was measured. […]

[4] = tested on: spring wheat (TRZAS); experiment: Postemergence greenhouse trial, % visual injury on spring wheat; type: in vivo, Triticum aestivum; details: alone, 35 g/ha
Procedure: as §1, §2, §3, §6, §7

[5] = tested on: poinsettia (EPHHL); experiment: Postemergence greenhouse trial, % visual injury on poinsettia; type: in vivo, Euphorbia heterophylla; details: alone, 35 g/ha
Procedure: as §1
Weighed amounts of technical material were dissolved in a volume of 97:3 volume per volume (v/v) acetone/dimethyl sulfoxide (DMSO) to stock solutions. […] The concentrated stock solutions were diluted with an aqueous mixture of 1.5% v/v of Agri-dex crop oil concentrate to provide the appropriate application rates. Compound requirements are based upon a 12 milliliter (mL) application volume at a rate of 187 liters per hectare (L/ha). Stocks solutions of the safeners were prepared following the same procedure. […]
as §3, with “Colby's equation was used to determine the herbicidal effects expected from the mixtures.” left out
as §4

[6] = tested on: nutsedge (CYPES); experiment: Postemergence greenhouse trial, % visual injury on nutsedge; type: in vivo, Cyperus esculentus; details: for % visual injury, observed (Ob): CYPES
Procedure: as §1, §2, §3, §4, §5

[7] = tested on: wild buckwheat (POLCO); experiment: Postemergence greenhouse trial, % visual injury on wild buckwheat; type: in vivo, Polygonum convolvulus; details: alone, 35 g/ha
Procedure: as §1, §2, §3, §6, §7

[8] = tested on: lambsquarters (CHEAL); experiment: Postemergence greenhouse trial, % visual injury on lambsquarters; type: in vivo, Chenopodium album; details: Chenopodium album, post-emergence; alone, 35 g/ha; read-out: % visual injury, Ob
Procedure: as §1, §2, §3, §6, §7

[9] = tested on: thistle (CIRAR); experiment: Postemergence greenhouse trial, % visual injury on thistle; type: in vivo, Cirsium arvense; details: Cirsium arvense, post-emergence; alone, 35 g/ha; read-out: % visual injury, Ob
Procedure: as §1, §2, §3, §4

[10] = tested on: corn/maize (ZEAMX); experiment: Postemergence greenhouse trial, % visual injury on corn/maize; type: in vivo, Zea mays; details: for % visual injury, Ob: alone, 35 g/ha; for % visual injury, observed (Ob): ZEAMX
Procedure: as §1, §2, §3, §4

[11] = tested on: chickweed (STEME); experiment: Postemergence greenhouse trial, % visual injury on chickweed; type: in vivo, Stellaria media; details: alone, 35 g/ha
Procedure: as §1, §2, §3, §4

[12] = tested on: winter wheat (TRZAW); experiment: Postemergence greenhouse trial, % visual injury on winter wheat; type: in vivo, Triticum aestivum; details: TRZAW
Procedure: as §1, §2, §3, §7

[13] = tested on: common sunflower (HELAN); experiment: Postemergence greenhouse trial, % visual injury on common sunflower; type: in vivo, Helianthus annuus
Procedure: as §1, §2, §3
(§8) The safener cloquintocet-acid and a number of agriculturally acceptable esters and salts (-mexyl, -dimethylammonium salt and -triethylammonium salt) were combined in varying ratios with compound 1 and applied to spring wheat (TRZAS), winter wheat (TRZAW), and spring barley (HORVS), and the phytotoxicity of the herbicidal compositions was measured. In addition, the efficacy of the herbicidal composition on pigweed (AMARE, Amaranthus retroflexus), nutsedge (CYPES, Cyperus esculentus), common sunflower (HELAN, Helianthus annuus), and common sorghum (SORVU, Sorghum vulgare).

[14] = tested on: common sorghum (SORVU); experiment: Postemergence greenhouse trial, % visual injury on common sorghum; type: in vivo, Sorghum vulgare; details: SORVU
Procedure: as §1, §2
as §3, with “mixtures. […]” for “mixtures.”
as §8

## COCC(=O)n1ccc2ccc(-c3nc(C(=O)OC)c(Cl)c(N)c3F)c(F)c21 [compound 6]
[1]
  pest or weed control at 35 g/ha: 100%
[2]
  plant injury at 35 g/ha: 75%
[3]
  % visual injury, Ob: 80%
[4]
  % visual injury, Ob: 35%
[5]
  % visual injury, Ob: 100%
[6]; alone, 35 g/ha
  % visual injury, Ob: 0%
[7]
  % visual injury, Ob: 97%
[8]
  pest or weed control at 35 g/ha: 100%
[9]
  pest or weed control at 35 g/ha: 75%
[10]
  % visual injury, Ob: 25%

## COC(=O)c1nc(-c2ccc3ccn(C(=O)C(C)C)c3c2F)c(F)c(N)c1Cl [compound 4]
[1]
  pest or weed control at 35 g/ha: 100%
[2]
  plant injury at 35 g/ha: 97%
[3]
  % visual injury, Ob: 80%
[4]
  % visual injury, Ob: 40%
[7]
  % visual injury, Ob: 100%
[11]
  % visual injury, Ob: 93%
[8]
  pest or weed control at 35 g/ha: 97%
[9]
  pest or weed control at 35 g/ha: 75%
[10]
  % visual injury, Ob: 35%

## CNC.O=C(O)COc1ccc(Cl)c2cccnc12 [CQC-DMA]
[12]; safener alone 2.5 g/ha
  % visual injury, observed (Ob): 0%
[12]; safener alone 5 g/ha
  % visual injury, observed (Ob): 0%
[12]; safener alone 10 g/ha
  % visual injury, observed (Ob): 0%
[12]; safener alone 20 g/ha
  % visual injury, observed (Ob): 0%
[1]; safener alone 2.5 g/ha
  % visual injury, observed (Ob): 0%
[1]; safener alone 5 g/ha
  % visual injury, observed (Ob): 0%
[1]; safener alone 10 g/ha
  % visual injury, observed (Ob): 0%
[1]; safener alone 20 g/ha
  % visual injury, observed (Ob): 0%
[6]; safener alone 2.5 g/ha
  % visual injury, observed (Ob): 0%
[6]; safener alone 5 g/ha
  % visual injury, observed (Ob): 0%
[6]; safener alone 10 g/ha
  % visual injury, observed (Ob): 0%
[6]; safener alone 20 g/ha
  % visual injury, observed (Ob): 0%
[13]; safener alone 2.5 g/ha
  % visual injury, observed (Ob): 0%
[13]; safener alone 5 g/ha
  % visual injury, observed (Ob): 0%
[13]; safener alone 10 g/ha
  % visual injury, observed (Ob): 0%
[13]; safener alone 20 g/ha
  % visual injury, observed (Ob): 0%
[14]; safener alone 2.5 g/ha
  % visual injury, observed (Ob): 0%
[14]; safener alone 5 g/ha
  % visual injury, observed (Ob): 0%
[14]; safener alone 10 g/ha
  % visual injury, observed (Ob): 0%
[14]; safener alone 20 g/ha
  % visual injury, observed (Ob): 0%
[10]; safener alone 2.5 g/ha
  % visual injury, observed (Ob): 0%
[10]; safener alone 5 g/ha
  % visual injury, observed (Ob): 0%
[10]; safener alone 10 g/ha
  % visual injury, observed (Ob): 0%
[10]; safener alone 20 g/ha
  % visual injury, observed (Ob): 0%

Reference: patent publication US9763445B2, “Safened herbicidal compositions comprising a pyridine carboxylic acid herbicide” (Dow AgroSciences, LLC, priority 2014, dated 2017)
